Experimental data from patent US7981883B2, “Substituted spiro-compounds and the use thereof for producing medicaments” (Gruenenthal GmbH, priority 2005, dated 2011).

Columns and labels:
Assay type in all cases: cell-based
[1] = target: T1, VR1 (human) (Homo sapiens, UniProt Q8NER1); assay: Functional FLIPR Ca2+ inflow assay on VR1 (human), CHO K1 cells stably transfected with the VR1 gene; details: against capsaicin (CAP)
T1 construct: expressed in transfected cells; host or cells: CHO K1 cells (ECACC)

[2] = target: T1, VR1 (human); assay: as above; details: test compound 10 μM; for inhibition at 10 µM / activation at 10 µM: CHO-K1; for inhibition at 10 µM: read-out: VR1 (human) (% inhibition compared to 10 μM CP); for activation at 10 µM: read-out: VR1 (human) (% stimulation compared to 10 μM CP)
From the text: II. Functional Testing Carried Out on the Vanilloid Receptor (VR1)
The agonistic or antagonistic effect of the substances to be tested can also be determined on the vanilloid receptor (VR1) using the following assay. According to this assay, the Ca^2+ inflow is quantified through the channel using a Ca^2+-sensitive dye (type Fluo-4, Molecular Probes Europe BV, Leiden, Netherlands) in a fluorescent imaging plate reader (FLIPR, Molecular Devices, Sunnyvale, USA).
Chinese hamster ovary cells (CHO K1 cells, European Collection of Cell Cultures (ECACC) United Kingdom) were stably transfected with the VR1 gene. For functional testing, these cells were plated out on poly-D-lysine-coated black 96 well plates having a clear base (BD Biosciences, Heidelberg, Germany) at a density of 25,000 cells/well. The cells were incubated overnight at 37° C. and 5% CO2 in a culture medium (Ham's F12 nutrient mixture, 10% by volume of FCS (foetal calf serum), 18 μg/ml L-proline). The next day the cells were incubated with Fluo-4 (Fluo-4 2 μM, 0.01% by volume of Pluronic F127, Molecular Probes in HBSS (Hank's buffered saline solution), Gibco Invitrogen GmbH, Karlsruhe, Germany) for 30 minutes at 37° C. Subsequently, the plates were washed three times with HBSS buffer and after further incubation for 15 minutes at room temperature used for Ca^2+ measurement in a FLIPR assay. The Ca^2+-dependent fluorescence was measured before and after the addition of the substances to be tested (λex wavelength=488 nm, λem=540 nm). Quantification was carried out by measuring the highest fluorescence intensity (FC, Fluorescence Counts) over time.
The FLIPR protocol consists of 2 substance additions. First the compounds to be tested (10 μM) were pipetted onto the cells and the Ca^2+ inflow was compared with the control (capsaicin 10 μM) (% activation based on the Ca^2+ signal after the addition of 10 μM capsaicin). After 5 minutes' incubation, 100 nM of capsaicin were administered and the Ca^2+ inflow was also determined.
Desensitising agonists and antagonists led to suppression of the Ca^2+ inflow. The % inhibition was calculated compared to the maximum achievable inhibition with 10 μM of capsaicin.

[3] = target: T2, VR1 (rat) (Rattus norvegicus, UniProt O35433); assay: Functional FLIPR Ca2+ inflow assay on rat-species vanilloid receptor 1 in rat dorsal root ganglia cells; details: against capsaicin (CAP)
T2 construct: from tissue; host or cells: primary cells dissociated from rat dorsal root ganglia

[4] = target: T2, VR1 (rat); assay: as above; details: test compound 10 μM; for inhibition at 10 µM: read-out: VR1 (rat) (% inhibition compared to 10 μM CP); for activation at 10 µM: read-out: VR1 (rat) (% stimulation compared to 10 μM CP)
From the text: I. Functional Testing Carried Out on the Vanilloid Receptor 1 (VR1/TRPV1 Receptor)
The agonistic or antagonistic effect of the substances to be tested can be determined on the rat-species vanilloid receptor 1 (VR1/TRPV1) using the following assay. According to this assay, the Ca^2+ inflow is quantified through the receptor channel using a Ca^2+-sensitive dye (type Fluo-4, Molecular Probes Europe BV, Leiden, Netherlands) in a fluorescent imaging plate reader (FLIPR, Molecular Devices, Sunnyvale, USA).
Complete medium: 50 mL HAMS F12 nutrient mixture (Gibco Invitrogen GmbH, Karlsruhe, Germany) with
10% by volume of FCS (foetal calf serum, Gibco Invitrogen GmbH, Karlsruhe, Germany, […]);
2 mM L-glutamine (Sigma, Munich, Germany);
1% by weight of AA solution (antibiotic/antimyotic solution, PAA, Pasching, Austria) and 25 ng/ml NGF medium (2.5 S, Gibco Invitrogen GmbH, Karlsruhe, Germany)
Cell culture plate: Poly-D-lysine-coated, black 96 well plates having a clear base (96 well black/clear plate, BD Biosciences, Heidelberg, Germany) were additionally coated with laminin (Gibco Invitrogen GmbH, Karlsruhe, Germany), the laminin being diluted with PBS (Ca—Mg-free PBS, Gibco Invitrogen GmbH, Karlsruhe, Germany) to a concentration of 100 μg/mL. Aliquots having a laminin concentration of 100 μg/mL were removed and stored at −20° C. The aliquots were diluted with PBS in a ratio of 1:10 to 10 μg/mL laminin and in each case 50 μL of the solution were pipetted into a recess in the cell culture plate. The cell culture plates were incubated for at least two hours at 37° C., the excess solution was removed by suction-filtration and the recesses were each washed twice with PBS. The coated cell culture plates were stored with excess PBS which was not removed until just before the feeding of the cells.
The vertebral column was removed from decapitated rats and placed immediately into cold HBSS buffer (Hank's buffered saline solution, Gibco Invitrogen GmbH, Karlsruhe, Germany), i.e. buffer located in an ice bath, mixed with 1% by volume (percent by volume) of an AA solution (antibiotic/antimyotic solution, PAA, Pasching, Austria). The vertebral column was cut longitudinally and removed together with fasciae from the vertebral canal. Subsequently, the dorsal root ganglia (DRG) were removed and again stored in cold HBSS buffer mixed with 1% by volume of an AA solution. The DRG, from which all blood remnants and spinal nerves had been removed, were transferred in each case to 500 μL of cold type 2 collagenase (PAA, Pasching, Austria) and incubated for 35 minutes at 37° C. After the addition of 2.5% by volume of trypsin (PAA, Pasching, Austria), incubation was continued for 10 minutes at 37° C. After complete incubation, the enzyme solution was carefully pipetted off and 500 μL of complete medium were added to each of the remaining DRG. The DRG were in each case suspended several times, drawn through cannulae No. 1, No. 12 and No. 16 using a syringe and transferred to a 50 mL Falcon tube which was filled up to 15 mL with complete medium. The contents of each Falcon tube was in each case filtered through a 70 μm Falcon filter element and centrifuged for 10 minutes at 1,200 rpm and room temperature. The resulting pellet was in each case taken up in 250 μL of complete medium and the number of cells determined.
The number of cells in the suspension was set to 3×10^5 per mL and 150 μL of this suspension were in each case introduced into a recess in the cell culture plates coated as described hereinbefore. In the incubator the plates were left for two to three days at 37° C., 5% by volume of CO2 and 95% relative humidity. […]

[5] = then 100 nM capsaicin after 5 min, relative to maximum inhibition with 10 μM capsaicin
[6] = Ca2+ signal relative to 10 μM capsaicin (CP)

T2 sequence (O35433 whole entry): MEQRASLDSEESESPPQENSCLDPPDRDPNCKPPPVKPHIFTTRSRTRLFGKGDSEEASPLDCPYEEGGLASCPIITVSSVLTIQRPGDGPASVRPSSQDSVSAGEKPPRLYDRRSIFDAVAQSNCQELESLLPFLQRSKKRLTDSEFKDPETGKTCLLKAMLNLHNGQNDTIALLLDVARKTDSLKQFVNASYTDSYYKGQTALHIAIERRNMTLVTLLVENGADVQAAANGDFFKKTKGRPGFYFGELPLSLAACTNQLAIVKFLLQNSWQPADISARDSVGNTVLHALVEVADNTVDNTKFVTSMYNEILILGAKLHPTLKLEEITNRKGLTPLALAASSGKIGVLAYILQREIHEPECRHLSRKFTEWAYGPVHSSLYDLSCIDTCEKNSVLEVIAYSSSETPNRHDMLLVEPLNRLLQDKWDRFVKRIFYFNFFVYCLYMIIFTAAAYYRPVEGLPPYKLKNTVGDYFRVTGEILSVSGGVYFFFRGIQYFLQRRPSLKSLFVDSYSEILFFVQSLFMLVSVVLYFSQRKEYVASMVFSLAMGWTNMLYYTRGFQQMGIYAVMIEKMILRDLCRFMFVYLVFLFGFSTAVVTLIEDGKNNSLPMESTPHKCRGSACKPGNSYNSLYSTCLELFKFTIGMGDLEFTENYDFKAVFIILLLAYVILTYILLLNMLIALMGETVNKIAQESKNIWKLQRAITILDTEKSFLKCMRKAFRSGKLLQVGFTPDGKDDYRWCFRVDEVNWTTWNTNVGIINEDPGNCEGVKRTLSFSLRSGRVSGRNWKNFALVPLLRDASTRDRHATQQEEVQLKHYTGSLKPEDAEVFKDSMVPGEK
T1 sequence (Q8NER1 whole entry): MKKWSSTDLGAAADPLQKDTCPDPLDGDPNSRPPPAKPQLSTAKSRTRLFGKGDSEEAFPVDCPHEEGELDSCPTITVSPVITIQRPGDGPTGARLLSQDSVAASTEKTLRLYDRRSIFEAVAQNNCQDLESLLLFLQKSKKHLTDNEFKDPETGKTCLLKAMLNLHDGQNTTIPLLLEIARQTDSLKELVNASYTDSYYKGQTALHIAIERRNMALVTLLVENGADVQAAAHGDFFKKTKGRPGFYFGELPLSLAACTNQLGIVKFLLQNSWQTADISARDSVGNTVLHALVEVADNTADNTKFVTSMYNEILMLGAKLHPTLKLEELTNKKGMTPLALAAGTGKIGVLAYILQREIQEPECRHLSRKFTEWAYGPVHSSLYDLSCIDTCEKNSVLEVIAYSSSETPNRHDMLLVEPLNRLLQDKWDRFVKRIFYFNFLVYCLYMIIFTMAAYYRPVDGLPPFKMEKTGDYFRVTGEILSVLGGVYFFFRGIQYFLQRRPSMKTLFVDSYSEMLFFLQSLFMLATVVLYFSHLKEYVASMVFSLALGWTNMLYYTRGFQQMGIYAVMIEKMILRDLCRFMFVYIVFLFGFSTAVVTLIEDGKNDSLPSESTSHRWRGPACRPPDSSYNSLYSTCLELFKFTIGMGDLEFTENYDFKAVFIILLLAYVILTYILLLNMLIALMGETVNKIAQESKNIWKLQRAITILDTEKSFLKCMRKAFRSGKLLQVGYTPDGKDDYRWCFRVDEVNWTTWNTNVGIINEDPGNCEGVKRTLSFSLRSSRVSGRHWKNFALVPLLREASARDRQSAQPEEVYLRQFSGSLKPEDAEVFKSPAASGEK

## CC(C)(C)[C@H]1CC[C@@]2(CC1)CC(C(=O)NCc1ccc(NS(C)(=O)=O)c(F)c1)=NO2 [Example 7, cis-8-tert-butyl-1-oxa-2-azaspiro[4.5]dec-2-ene-3-carboxylic acid-3-fluoro-4-methanesulphonylaminobenzylamide]
[1]
  IC50: 1.24 µM
  Ki: 1.99 µM
[2]; [5]
  inhibition at 10 µM: 92.8%
[2]; [6]
  activation at 10 µM: -0.05%
[3]
  IC50: 0.126 µM
  Ki: 0.0797 µM
[4]; [5]
  inhibition at 10 µM: 105%
[4]; [6]
  activation at 10 µM: 0.23%

## CC(C)(C)[C@H]1CC[C@@]2(CC1)CC(C(=O)N1CCN(c3ncccc3C(F)(F)F)CC1)=NO2 [Example 9, cis-(8-tert-butyl-1-oxa-2-azaspiro[4.5]dec-2-en-3-yl)-[4-(3-trifluoromethylpyridin-2-yl)piperazin-1-yl]methanone]
[1]
  IC50: 3.34 µM
  Ki: 4.86 µM
[2]; [5]
  VR1 (human) (% inhibition compared to 10 μM CP): 61.74%
[2]; [6]
  VR1 (human) (% stimulation compared to 10 μM CP): 0.41%
[3]
  IC50: 1.55 µM
  Ki: 0.894 µM
[4]; [5]
  VR1 (rat) (% inhibition compared to 10 μM CP): 91.46%
[4]; [6]
  VR1 (rat) (% stimulation compared to 10 μM CP): 1.05%

## CCC(C)(C)C1CCC2(CC1)CC(C(=O)NCc1ccc(NS(C)(=O)=O)c(F)c1)=NO2 (stereo not drawn) [Example 80, N-(3-fluoro-4-(methylsulphonamido)benzyl)-8-tert-pentyl-1-oxa-2-azaspiro[4.5]dec-2-ene-3-carboxamide]
[1]
  IC50: 2.87 µM
  Ki: 2.05 µM
[2]; [5]
  inhibition at 10 µM: 42%
[2]; [6]
  activation at 10 µM: 35%
[3]
  IC50: 1.22 µM
  Ki: 0.341 µM
[4]; [5]
  inhibition at 10 µM: 103%
[4]; [6]
  activation at 10 µM: 48%
